{"source": "paper PMC3479967", "about": "(Evidence-based Complementary and Alternative Medicine : eCAM, 2012)", "target": "T1, UGT2B17 (Homo sapiens, UniProt O75795)", "T1 sequence (O75795 24-530)": "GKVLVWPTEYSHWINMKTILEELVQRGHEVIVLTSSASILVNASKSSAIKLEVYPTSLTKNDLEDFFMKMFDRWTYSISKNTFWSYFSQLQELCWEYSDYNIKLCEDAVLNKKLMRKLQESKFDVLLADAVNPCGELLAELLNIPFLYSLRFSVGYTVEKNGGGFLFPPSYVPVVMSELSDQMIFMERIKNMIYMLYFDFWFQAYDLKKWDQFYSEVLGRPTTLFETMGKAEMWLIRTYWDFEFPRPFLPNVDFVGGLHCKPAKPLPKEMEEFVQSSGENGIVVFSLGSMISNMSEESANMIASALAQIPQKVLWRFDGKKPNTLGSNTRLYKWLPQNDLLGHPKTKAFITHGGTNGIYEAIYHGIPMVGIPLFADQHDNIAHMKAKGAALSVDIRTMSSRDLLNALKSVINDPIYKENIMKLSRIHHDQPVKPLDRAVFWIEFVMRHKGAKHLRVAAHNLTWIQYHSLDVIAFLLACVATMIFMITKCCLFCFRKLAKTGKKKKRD", "test": "Inhibition of recombinant UGT2B17 activity (4-MU glucuronidation)", "method": "A panel of recombinant human UGT supersomes (UGT1A1, UGT1A3, UGT1A4, UGT1A6, UGT1A7, UGT1A8, UGT1A9, UGT1A10, UGT2B4, UGT2B7, UGT2B15, and UGT2B17) expressed in baculovirus-infected insect cells were purchased from BD Gentest Corp. (Woburn, MA, USA).\n4-MU, a nonselective substrate of UGTs, was used as probe substrate for all UGTs except UGT1A4. Incubations with each individual enzyme were conducted using conditions previously described. There was a 5 min preincubation step at 37°C before the reaction was started by addition of UDPGA. The incubation mixtures were then centrifuged at 20,500 ×g for 15 min to obtain the supernatant. Aliquots (20 μL) were then analyzed by HPLC. The HPLC system (SHIMADZU, Kyoto, Japan) consisted of an SCL-10A system controller, two LC-10AT pumps, a SIL-10A auto injector, and a SPD-10AVP UV detector. Chromatographic separation was achieved using a Kromasil ODS column (4.6 × 150 mm I.D., 5 μm particle size) at a flow rate of 1 mL/min and UV detection at 316 nm. The mobile phase consisted of 10 mM KH2PO4, pH 2.7 (A) and acetonitrile (B). The following gradient was applied at a flow rate of 1 mL/min: 0–4 min 80% A and 20% B, 4.1–8 min 50% A and 50% B, 8.1–12 min, 30% A and 70% B. All experiments were performed in two independent experiments in duplicate.\nA typical incubation mixture contained recombinant human UGTs, 5 mM MgCl2, 5 mM UDPGA, 50 μg/mg protein alamethicin, 50 mM Tris-HCl buffer (pH 7.4), and various probe substrates of UGTs in the absence or presence of different concentrations of inhibitors. […] The final concentration of DMSO in the incubation system was 1% (v/v). […]\nInhibition data from experiments were graphically represented by Dixon plots. K i values were calculated by nonlinear regression using the equations for competitive inhibition (1), noncompetitive inhibition (2), or mixed inhibition (3), [22] […] The type of inhibition was determined from the enzyme inhibition models. Goodness of fit to kinetic and inhibition models was assessed from the F statistic, r ^2 values, parameter standard error estimates, and 95% confidence intervals. […]"}
{"smiles": "COc1ccc(-c2oc3c(CC=C(C)C)c(O[C@@H]4O[C@H](CO)[C@@H](O)[C@H](O)[C@H]4O)cc(O)c3c(=O)c2O[C@@H]2O[C@@H](C)[C@H](O)[C@@H](O)[C@H]2O)cc1", "note": "[Icariin]", "values": [{"measurement": "IC50", "value": "> 100", "unit": "µM"}]}
{"smiles": "COc1ccc(-c2oc3c(CC=C(C)C)c(O)cc(O)c3c(=O)c2O)cc1", "note": "[Icaritin]", "values": [{"measurement": "IC50", "value": "> 100", "unit": "µM"}]}
{"smiles": "COc1ccc(-c2oc3c(CC=C(C)C)c(O[C@@H]4O[C@H](CO)[C@@H](O)[C@H](O)[C@H]4O)cc(O)c3c(=O)c2O)cc1", "note": "[Icariside I]", "values": [{"measurement": "IC50", "value": "> 100", "unit": "µM"}]}
